Laboratory results from PubChem BioAssay (NCI).
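Exposure lasted 48 hours, with cells grown in 96-well plates and compounds tested at five concentrations. TGI marks complete inhibition of growth.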

What was measured:
Assay in all cases: NCI tumour cell line growth inhibition, 48 h
NCI-H23 lung = tested on: NCI-H23 lung
IGROV1 ovarian = tested on: IGROV1 ovarian
SF-295 CNS = tested on: SF-295 CNS
HOP-62 NSCLC = tested on: HOP-62 NSCLC
EKVX NSCLC = tested on: EKVX NSCLC
MDA-MB-231 breast = tested on: MDA-MB-231 breast
NCI-H226 lung = tested on: NCI-H226 lung
786-0 renal = tested on: 786-0 renal
M14 melanoma = tested on: M14 melanoma
MCF7 breast = tested on: MCF7 breast
SF-539 CNS = tested on: SF-539 CNS
HS 578T breast = tested on: HS 578T breast
NCI-H522 lung = tested on: NCI-H522 lung
SK-MEL-2 melanoma = tested on: SK-MEL-2 melanoma
HCC-2998 colon = tested on: HCC-2998 colon
SF-268 CNS = tested on: SF-268 CNS
MDA-N = tested on: MDA-N
HCT-15 colon = tested on: HCT-15 colon
OVCAR-5 ovarian = tested on: OVCAR-5 ovarian
CAKI-1 renal = tested on: CAKI-1 renal
NCI-H460 lung = tested on: NCI-H460 lung
OVCAR-8 ovarian = tested on: OVCAR-8 ovarian
LOX IMVI melanoma = tested on: LOX IMVI melanoma
ACHN renal = tested on: ACHN renal
SNB-75 CNS = tested on: SNB-75 CNS
CCRF-CEM leukemia = tested on: CCRF-CEM leukemia
SK-OV-3 ovarian = tested on: SK-OV-3 ovarian
SN12C renal = tested on: SN12C renal
HL-60(TB) leukemia = tested on: HL-60(TB) leukemia
UO-31 renal = tested on: UO-31 renal
DU-145 prostate = tested on: DU-145 prostate
COLO 205 colon = tested on: COLO 205 colon
NCI/ADR-RES ovarian = tested on: NCI/ADR-RES ovarian
TK-10 renal = tested on: TK-10 renal
KM12 colon = tested on: KM12 colon
SK-MEL-5 melanoma = tested on: SK-MEL-5 melanoma
U251 CNS = tested on: U251 CNS
SNB-19 CNS = tested on: SNB-19 CNS
SW-620 colon = tested on: SW-620 colon
HT29 colon = tested on: HT29 colon
MDA-MB-435 = tested on: MDA-MB-435
OVCAR-3 ovarian = tested on: OVCAR-3 ovarian
T-47D breast = tested on: T-47D breast
UACC-257 melanoma = tested on: UACC-257 melanoma
A498 renal = tested on: A498 renal
MOLT-4 leukemia = tested on: MOLT-4 leukemia
PC-3 prostate = tested on: PC-3 prostate
A549 NSCLC = tested on: A549 NSCLC
MALME-3M melanoma = tested on: MALME-3M melanoma
HCT-116 colon = tested on: HCT-116 colon
RPMI-8226 leukemia = tested on: RPMI-8226 leukemia
HOP-92 NSCLC = tested on: HOP-92 NSCLC
K-562 leukemia = tested on: K-562 leukemia
OVCAR-4 ovarian = tested on: OVCAR-4 ovarian
RXF 393 renal = tested on: RXF 393 renal
SK-MEL-28 melanoma = tested on: SK-MEL-28 melanoma
UACC-62 melanoma = tested on: UACC-62 melanoma
SR leukemia = tested on: SR leukemia

CCOC(=O)C(NC(=O)c1cccc(Cl)c1)(Nc1ccc(S(=O)(=O)Nc2cc(C)on2)cc1)C(F)(F)F (configuration not stated)
TGI (NCI-H23 lung): > 100 µM
TGI (IGROV1 ovarian): > 100 µM
TGI (SF-295 CNS): 33.4 µM
TGI (HOP-62 NSCLC): > 100 µM
TGI (EKVX NSCLC): > 100 µM
TGI (MDA-MB-231 breast): > 100 µM
TGI (NCI-H226 lung): > 100 µM
TGI (786-0 renal): > 100 µM
TGI (M14 melanoma): > 100 µM
TGI (MCF7 breast): > 100 µM
TGI (SF-539 CNS): > 100 µM
TGI (HS 578T breast): > 100 µM
TGI (NCI-H522 lung): > 100 µM
TGI (SK-MEL-2 melanoma): > 100 µM
TGI (HCC-2998 colon): > 100 µM
TGI (SF-268 CNS): > 100 µM
TGI (MDA-N): > 100 µM
TGI (HCT-15 colon): > 100 µM
TGI (OVCAR-5 ovarian): > 100 µM
TGI (CAKI-1 renal): > 100 µM
TGI (NCI-H460 lung): > 100 µM
TGI (OVCAR-8 ovarian): > 100 µM
TGI (LOX IMVI melanoma): > 100 µM
TGI (ACHN renal): > 100 µM
TGI (SNB-75 CNS): > 100 µM
TGI (CCRF-CEM leukemia): > 100 µM
TGI (SK-OV-3 ovarian): > 100 µM
TGI (SN12C renal): > 100 µM
TGI (HL-60(TB) leukemia): > 100 µM
TGI (UO-31 renal): > 100 µM
TGI (DU-145 prostate): > 100 µM
TGI (COLO 205 colon): > 100 µM
TGI (NCI/ADR-RES ovarian): > 100 µM
TGI (TK-10 renal): > 100 µM
TGI (KM12 colon): > 100 µM
TGI (SK-MEL-5 melanoma): > 100 µM
TGI (U251 CNS): > 100 µM
TGI (SNB-19 CNS): > 100 µM
TGI (SW-620 colon): > 100 µM
TGI (HT29 colon): > 100 µM
TGI (MDA-MB-435): > 100 µM
TGI (OVCAR-3 ovarian): > 100 µM
TGI (T-47D breast): > 100 µM
TGI (UACC-257 melanoma): > 100 µM
TGI (A498 renal): > 100 µM
TGI (MOLT-4 leukemia): > 100 µM
TGI (PC-3 prostate): > 100 µM
TGI (A549 NSCLC): > 100 µM
TGI (MALME-3M melanoma): > 100 µM
TGI (HCT-116 colon): > 100 µM
TGI (RPMI-8226 leukemia): > 100 µM
TGI (HOP-92 NSCLC): > 100 µM
TGI (K-562 leukemia): > 100 µM
TGI (OVCAR-4 ovarian): > 100 µM
TGI (RXF 393 renal): > 100 µM
TGI (SK-MEL-28 melanoma): > 100 µM

COc1ccc(C(=O)/C=C/c2ccc(OCCCCCCCCCCOc3ccc(/C=C/C(=O)c4ccc(OC)cc4)cc3)cc2)cc1
TGI (UACC-62 melanoma): > 100 µM
TGI (IGROV1 ovarian): > 100 µM
TGI (SF-295 CNS): > 100 µM
TGI (HOP-62 NSCLC): > 100 µM
TGI (EKVX NSCLC): > 100 µM
TGI (MDA-MB-231 breast): > 100 µM
TGI (NCI-H226 lung): > 100 µM
TGI (786-0 renal): > 100 µM
TGI (M14 melanoma): > 100 µM
TGI (MCF7 breast): > 100 µM
TGI (SF-539 CNS): > 100 µM
TGI (HS 578T breast): > 100 µM
TGI (SK-MEL-2 melanoma): > 100 µM
TGI (HCC-2998 colon): > 100 µM
TGI (SF-268 CNS): > 100 µM
TGI (MDA-N): > 100 µM
TGI (HCT-15 colon): > 100 µM
TGI (OVCAR-5 ovarian): > 100 µM
TGI (CAKI-1 renal): > 100 µM
TGI (NCI-H460 lung): > 100 µM
TGI (OVCAR-8 ovarian): > 100 µM
TGI (ACHN renal): > 100 µM
TGI (SNB-75 CNS): > 100 µM
TGI (CCRF-CEM leukemia): > 100 µM
TGI (SK-OV-3 ovarian): > 100 µM
TGI (SN12C renal): > 100 µM
TGI (HL-60(TB) leukemia): > 100 µM
TGI (UO-31 renal): > 100 µM
TGI (DU-145 prostate): > 100 µM
TGI (COLO 205 colon): > 100 µM
TGI (NCI/ADR-RES ovarian): > 100 µM
TGI (TK-10 renal): > 100 µM
TGI (KM12 colon): > 100 µM
TGI (SK-MEL-5 melanoma): > 100 µM
TGI (U251 CNS): > 100 µM
TGI (SNB-19 CNS): > 100 µM
TGI (SW-620 colon): > 100 µM
TGI (HT29 colon): > 100 µM
TGI (MDA-MB-435): > 100 µM
TGI (T-47D breast): > 100 µM
TGI (UACC-257 melanoma): > 100 µM
TGI (MOLT-4 leukemia): > 100 µM
TGI (PC-3 prostate): > 100 µM
TGI (A549 NSCLC): > 100 µM
TGI (HCT-116 colon): > 100 µM
TGI (RPMI-8226 leukemia): > 100 µM
TGI (SR leukemia): > 100 µM
TGI (K-562 leukemia): > 100 µM
TGI (OVCAR-4 ovarian): > 100 µM
TGI (RXF 393 renal): > 100 µM
TGI (SK-MEL-28 melanoma): > 100 µM
